Data on 19 compounds can be found in US10975068B2, “6-aminopyridin-3-yl thiazoles as modulators of RORγT” (Janssen Pharmaceutica NV, priority 2016, dated 2021).

Assay [1] has as its target human RORγt ligand binding domain (RORγt LBD) (Homo sapiens (Human), UniProt P51449). In words: RORγt ThermoFluor® assay (thermal shift binding). To be noted: read-out: ThermoFluor® Assay, Kd. In outline:
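His-tagged human RORγt LBD (0.065 mg/mL) with 60 μM 1,8-ANS in 100 mM Hepes pH 7.0, 10 mM NaCl, 2.5 mM GSH, 0.002% Tween-20 was heated at 1 °C/min.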
On the technique in general: In DSF a fluorescence change marks the thermal transition of the protein.

Assay [2] deals with full-length human RORγt (Homo sapiens (Human), UniProt P51449). In words: RORγt (full-length human) reporter assay, Conditions B or C. Format: cell-based. The note with it: for RORγt (FL) Reporter Assay B or C, % inhibition (value marked *): marked *: footnote not given; for inhibition at 3 µM: at 3 μM compound concentration, read-out: RORγt (FL) Reporter Assay B or C, % inhibition; for inhibition at 6 µM: read-out: RORγt (FL) Reporter Assay B or C, % inhibition @ 6 μM, Conditions B or C. An outline of the steps: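 HEK293T cells transiently co-transfected with GAL4-DBD–full-length human RORγt (nt 142-1635, NM_001001523.1) plus GAL4-firefly and CMV-Renilla luciferase reporters; compounds added 4-6 h post-transfection for 16-20 h in 1.3% FBS, 0.1% DMSO. Firefly signal normalized to DMSO and saturating reference compound, then to Renilla; IC50 from concentration plots.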
For orientation: A reporter such as luciferase makes a cellular process visible.

Setting [3] is: Conditions B or C, read-out: RORγt (FL) Reporter Assay B or C, IC50.
Where [4] appears, read: read-out: RORγt (FL) Reporter Assay B or C, IC50.

Read-outs that look alike come from different tables or passages of the source.

Chain of human RORγt ligand binding domain (RORγt LBD) (P51449 other isoform, or with tags, fused parts or gaps): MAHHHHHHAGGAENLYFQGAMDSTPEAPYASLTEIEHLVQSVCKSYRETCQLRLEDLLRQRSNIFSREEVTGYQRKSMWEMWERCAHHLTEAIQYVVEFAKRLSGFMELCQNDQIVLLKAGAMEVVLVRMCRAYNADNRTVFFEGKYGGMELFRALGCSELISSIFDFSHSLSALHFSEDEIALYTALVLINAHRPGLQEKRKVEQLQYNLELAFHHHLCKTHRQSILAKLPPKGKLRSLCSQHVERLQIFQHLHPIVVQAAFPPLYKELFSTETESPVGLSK
Chain of full-length human RORγt (P51449 other isoform, or with tags, fused parts or gaps): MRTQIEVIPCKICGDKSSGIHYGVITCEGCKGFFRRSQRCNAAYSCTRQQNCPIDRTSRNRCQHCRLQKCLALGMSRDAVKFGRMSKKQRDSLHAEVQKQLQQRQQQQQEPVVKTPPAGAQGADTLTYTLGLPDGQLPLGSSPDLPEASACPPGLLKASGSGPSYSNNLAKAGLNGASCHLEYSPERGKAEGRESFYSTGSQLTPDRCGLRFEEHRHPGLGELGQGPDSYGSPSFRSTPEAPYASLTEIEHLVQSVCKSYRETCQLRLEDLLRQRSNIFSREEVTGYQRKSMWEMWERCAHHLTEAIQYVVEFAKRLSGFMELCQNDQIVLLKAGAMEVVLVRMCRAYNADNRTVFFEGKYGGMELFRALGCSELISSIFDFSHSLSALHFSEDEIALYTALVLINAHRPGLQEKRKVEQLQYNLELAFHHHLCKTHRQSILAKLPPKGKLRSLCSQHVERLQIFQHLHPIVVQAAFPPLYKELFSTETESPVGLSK

As usually defined, the Kd is the free concentration of one partner at which half of the binding sites on the other are occupied at equilibrium, for simple one-to-one binding. What is called IC50 is the concentration at which inhibition is half-maximal. `CC[C@H](Nc1cc(C(F)F)c(-c2sc(C(=O)N[C@@H]3COC[C@@H]3O)nc2C(=O)N2CCC[C@@H]2C)cn1)C(F)(F)F` (single isomer, unassigned) [Example 162, 5-(4-(Difluoromethyl)-6-(((S)-1,1,1-trifluorobutan-2-yl)amino)pyridin-3-yl)-N-((3R*,4R*)-4-hydroxytetrahydrofuran-3-yl)-4-((S)-2-methylpyrrolidine-1-carbonyl)thiazole-2-carboxamide]: in assay [1], the Kd was found to be 9.5 nM. Further, the “RORγt (FL) Reporter Assay B or C, % inhibition (value marked *)” value (“RORγt … % inhibition (value marked *)” below) in assay [2] (Conditions B or C) is given as 104* %. The IC50 in assay [2] (setting [3]) was 31 nM.
In general, inhibition refers to the change of the read-out against control, counted positive when it falls. In the case of `C[C@H]1CC(F)(F)CN1C(=O)c1nc(C(=O)N[C@H]2C[C@H](O)C2)sc1-c1cnc(NC2(C)CCC2)cc1C(F)F` [Example 327, 4-((S)-4,4-Difluoro-2-methylpyrrolidine-1-carbonyl)-5-(4-(difluoromethyl)-6-((1-methylcyclobutyl)amino)pyridin-3-yl)-N-((1r,3S)-3-hydroxycyclobutyl)thiazole-2-carboxamide], the Kd in assay [1] came to 2 nM. Besides, the inhibition at 3 µM in assay [2] turned out to be 93%. For the same compound, the IC50 in assay [2] (setting [4]) is 11 nM.
For the compound `CC(C)(O)CNC(=O)c1nc(C(=O)N2C3CCC2CC3)c(-c2cnc(NC(C3CC3)C3CC3)cc2C(F)(F)F)s1` [Example 137, 4-((1s,4s)-7-Azabicyclo[2.2.1]heptane-7-carbonyl)-5-(6-((dicyclopropylmethyl)amino)-4-(trifluoromethyl)pyridin-3-yl)-N-(2-hydroxy-2-methypropyl)thiazole-2-carboxamide], the equilibrium dissociation constant (Kd) in assay [1] stood at 1.1 nM. In assay [2] (Conditions B or C), the “RORγt … % inhibition (value marked *)” value was 97* %. Besides, the IC50 in assay [2] (setting [3]) came to 12 nM.
Turning to `C[C@H]1CCCN1C(=O)c1nc(C(=O)N[C@H]2CC[C@H](O)C2)sc1-c1cnc(NC(C)(C)C)cc1C(F)(F)F` [Example 361, 5-[6-(tert-Butylamino)-4-(trifluoromethyl)-3-pyridyl]-N-[(1S,3S)-3-hydroxycyclopentyl]-4-[(2S)-2-methylpyrrolidine-1-carbonyl]thiazole-2-carboxamide], the Kd in assay [1] was 0.37 nM. In addition, the inhibition at 3 µM in assay [2] came to 105%. Moreover, in assay [2] (setting [4]), the IC50 amounted to 25 nM.
The matching figures for `C[C@H]1CCCN1C(=O)c1nc(C(=O)NC[C@@H](O)CO)sc1-c1cnc(NC(C)(C)C)cc1C(F)(F)F` [Example 345, 5-[6-(tert-Butylamino)-4-(trifluoromethyl)-3-pyridyl]-N-[(2R)-2,3-dihydroxypropyl]-4-[(2S)-2-methylpyrrolidine-1-carbonyl]thiazole-2-carboxamide]: 16 nM, 111% and 63 nM.
In the case of `C[C@H]1CCCN1C(=O)c1nc(C(=O)NC[C@H](O)C(C)(C)O)sc1-c1cnc(NC(C)(C)C)cc1C(F)(F)F` (single isomer, unassigned) [Example 244, 5-(6-(tert-Butylamino)-4-(trifluoromethyl)pyridin-3-yl)-N—((S*)-2,3-dihydroxy-3-methylbutyl)-4-((S)-2-methylpyrrolidine-1-carbonyl)thiazole-2-carboxamide], the Kd in assay [1] was determined as 6.2 nM. For the same compound, in assay [2] (Conditions B or C), the “RORγt … % inhibition (value marked *)” value is recorded as 106* %. Besides, the 50% inhibitory concentration (IC50) in assay [2] (setting [3]) came to 8.3 nM.
`C[C@H](NC(=O)c1nc(C(=O)N2CCC[C@@H]2C)c(-c2cnc(NC3(C)CCC3)cc2C(F)F)s1)C(C)(C)O` [Example 322, 5-(4-(Difluoromethyl)-6-((1-methylcyclobutyl)amino)pyridin-3-yl)-N—((S)-3-hydroxy-3-methylbutan-2-yl)-4-((S)-2-methylpyrrolidine-1-carbonyl)thiazole-2-carboxamide]: the Kd in assay [1] stood at 1.8 nM. The inhibition at 3 µM in assay [2] stood at 106%. For the same compound, the IC50 in assay [2] (setting [4]) turned out to be 49 nM.
The matching figures for `C[C@H](NC(=O)c1nc(C(=O)N2C3CCC2CC3)c(-c2cnc(N[C@@H](C)C(F)(F)F)cc2C(F)F)s1)C(C)(C)O` [Example 446, 4-((1s,4s)-7-Azabicyclo[2.2.1]heptane-7-carbonyl)-5-[4-(difluoromethyl)-6-[[(1S)-2,2,2-trifluoro-1-methyl-ethyl]amino]-3-pyridyl]-N-[(1S)-2-hydroxy-1,2-dimethyl-propyl]thiazole-2-carboxamide]: 13 nM, 108% and 180 nM.
On to `CC[C@H](Nc1cc(C(F)F)c(-c2sc(C(=O)NC3CS(=O)(=O)C3)nc2C(=O)N2CCC[C@@H]2C)cn1)C(F)(F)F` [Example 240, 5-[4-(Difluoromethyl)-6-[[(1S)-1-(trifluoromethyl)propyl]amino]-3-pyridyl]-N-(1,1-dioxothietan-3-yl)-4-[(2S)-2-methylpyrrolidine-1-carbonyl]thiazole-2-carboxamide], for which, in assay [1], the dissociation constant (Kd) amounted to 2.5 nM. In assay [2] (Conditions B or C), the “RORγt … % inhibition (value marked *)” value is recorded as 107* %. In addition, the half-maximal inhibitory concentration (IC50) in assay [2] (setting [3]) turned out to be 57 nM.
For `C[C@H]1CC(F)(F)CN1C(=O)c1nc(C(=O)N[C@H]2COC[C@@H]2O)sc1-c1cnc(NC2(C)CCC2)cc1C(F)(F)F` [Example 186], in assay [1], the Kd is 0.18 nM. Besides, the “RORγt … % inhibition (value marked *)” value in assay [2] (Conditions B or C) is on record as 98* %. In addition, the half-maximal inhibitory concentration (IC50) in assay [2] (setting [3]) stood at 16 nM.
For the compound `C[C@H]1CCCN1C(=O)c1nc(C(=O)N[C@H]2C[C@H](O)C2)sc1-c1cnc(NC(C)(C)C)cc1C(F)F` [Example 400, 5-(6-(tert-Butylamino)-4-(difluoromethyl)pyridin-3-yl)-N-((1R,3S)-3-hydroxycyclobutyl)-4-((S)-2-methylpyrrolidine-1-carbonyl)thiazole-2-carboxamide], the Kd in assay [1] is 13 nM. In assay [2], the inhibition at 3 µM was found to be 84%. The IC50 in assay [2] (setting [4]) is 56 nM.
For the compound `CC[C@H](Nc1cc(C(F)F)c(-c2sc(C(=O)NC3CCOCC3)nc2C(=O)N2C3CCC2CC3)cn1)C(F)(F)F` [Example 153], the Kd in assay [1] is 1.1 nM. Moreover, in assay [2] (Conditions B or C), the “RORγt … % inhibition (value marked *)” value is recorded as 98* %. The IC50 in assay [2] (setting [3]) is 52 nM.
`C[C@H]1CCN1C(=O)c1nc(C(=O)NCC(C)(C)O)sc1-c1cnc(NC2CCCCC2)cc1C(F)(F)F` [Example 25, (S)-5-(6-(Cyclohexylamino)-4-(trifluoromethyl)pyridin-3-yl)-N-(2-hydroxy-2-methylpropyl)-4-(2-methylazetidine-1-carbonyl)thiazole-2-carboxamide]: the dissociation constant (Kd) in assay [1] amounted to 120 nM. For the same compound, the IC50 in assay [2] (setting [3]) was found to be 220 nM. Besides, in assay [2], the inhibition at 6 µM stood at 102%.
Consider `CC(C)(C)Nc1cc(C(F)F)c(-c2sc(C(=O)N[C@H]3CCC[C@@H]3O)nc2C(=O)N2C3CCC2CC3)cn1` [Example 440, 4-((1s,4s)-7-Azabicyclo[2.2.1]heptane-7-carbonyl)-5-[6-(tert-butylamino)-4-(difluoromethyl)-3-pyridyl]-N-[(1S,2S)-2-hydroxycyclopentyl]thiazole-2-carboxamide], for which, in assay [1], the Kd stood at 0.72 nM. Besides, the IC50 in assay [2] (RORγt (FL) Reporter Assay B or C, IC50) was 31 nM. In addition, the inhibition at 3 µM in assay [2] was 104%.
Regarding `CC[C@H](Nc1cc(C(F)(F)F)c(-c2sc(C(=O)N[C@@H]3COC[C@H]3O)nc2C(=O)N2CCC[C@@H]2C)cn1)C(F)(F)F` [Example 170, N-((3R,4S)-4-Hydroxytetrahydrofuran-3-yl)-4-((2S)-2-methylpyrrolidine-1-carbonyl)-5-(4-(trifluoromethyl)-6-(((1S)-1-(trifluoromethyl)propyl)amino)-3-pyridyl)thiazole-2-carboxamide], in assay [1], the dissociation constant Kd was 1.9 nM. The “RORγt … % inhibition (value marked *)” value in assay [2] (Conditions B or C) is listed as 101* %. Moreover, in assay [2] (setting [3]), the 50% inhibitory concentration (IC50) turned out to be 24 nM.
Take `C[C@H]1CC(F)(F)CN1C(=O)c1nc(C(=O)NCC(C)(C)O)sc1-c1cnc(NC(C)(C)C)cc1C(F)(F)F` [Example 83, (S)-5-(6-(tert-Butylamino)-4-(trifluoromethyl)pyridin-3-yl)-4-(4,4-difluoro-2-methylpyrrolidine-1-carbonyl)-N-(2-hydroxy-2-methylpropyl)thiazole-2-carboxamide]: the dissociation constant (Kd) in assay [1] was determined as 0.55 nM. The “RORγt (FL) Reporter Assay B or C, % inhibition (value marked ***)” value in assay [2] (Conditions B or C, marked ***: footnote not given) is on record as 110*** %. Also, in assay [2] (setting [3]), the IC50 is 6.9 nM.
Take `C[C@H]1CCCN1C(=O)c1nc(C(=O)NCC(C)(C)O)sc1-c1cnc(N[C@@H]2CCCCC2(F)F)cc1C(F)(F)F` (relative stereo) [Example 35, 5-(6-(((R*)-2,2-Difluorocyclohexyl)amino)-4-(trifluoromethyl)pyridin-3-yl)-N-(2-hydroxy-2-methylpropyl)-4-((S)-2-methylpyrrolidine-1-carbonyl)thiazole-2-carboxamide]: the Kd in assay [1] is 3.9 nM. In assay [2] (setting [3]), the IC50 is 20 nM. The inhibition at 6 µM in assay [2] was 114%.
As to `CCC(C)(C)Nc1cc(C(F)F)c(-c2sc(C(=O)NCC(C)(C)O)nc2C(=O)N2CCC[C@@H]2C)cn1` [Example 96, (S)-5-(4-(Difluoromethyl)-6-(tert-pentylamino)pyridin-3-yl)-N-(2-hydroxy-2-methylpropyl)-4-(2-methylpyrrolidine-1-carbonyl)thiazole-2-carboxamide], the Kd in assay [1] is 1.2 nM. The “RORγt … % inhibition (value marked *)” value in assay [2] (Conditions B or C) was 119* %. For the same compound, the IC50 in assay [2] (setting [3]) was determined as 37 nM.
Turning to `C[C@H]1CCCN1C(=O)c1nc(C(=O)NCc2nnn[nH]2)sc1-c1cnc(NC(C)(C)C)cc1C(F)(F)F` [Example 303, (S)—N-((1H-Tetrazol-5-yl)methyl)-5-(6-(tert-butylamino)-4-(trifluoromethyl)pyridin-3-yl)-4-(2-methylpyrrolidine-1-carbonyl)thiazole-2-carboxamide], the dissociation constant Kd in assay [1] was 15 nM. In assay [2], the inhibition at 3 µM was determined as 88%. Also, the IC50 in assay [2] (setting [4]) was 740 nM.
